Source: patent US12558432B2, “Biocompatible polymeric drug carriers for delivering active agents” (CIS BIOPHARMA AG, priority 2019, dated 2026)

Test system: cell culture
Test: cell culture experiments (toxic effects)
Assay type: cell-based
Conditions: at concentrations of up to 5 mM

C=CC(=O)NCCCC[C@H](N)C(=O)O [acryloyl-lysine, (S)-6-acrylamido-2-aminohexanoic acid]
toxic effects in cell culture experiments: do not exhibit any toxic effects
